The target in test [1] is T1, Putative agmatine deiminase (Streptococcus mutans serotype c (strain ATCC 700610 / UA159), UniProt Q8DW17).
T1 sequence (Q8DW17 whole entry): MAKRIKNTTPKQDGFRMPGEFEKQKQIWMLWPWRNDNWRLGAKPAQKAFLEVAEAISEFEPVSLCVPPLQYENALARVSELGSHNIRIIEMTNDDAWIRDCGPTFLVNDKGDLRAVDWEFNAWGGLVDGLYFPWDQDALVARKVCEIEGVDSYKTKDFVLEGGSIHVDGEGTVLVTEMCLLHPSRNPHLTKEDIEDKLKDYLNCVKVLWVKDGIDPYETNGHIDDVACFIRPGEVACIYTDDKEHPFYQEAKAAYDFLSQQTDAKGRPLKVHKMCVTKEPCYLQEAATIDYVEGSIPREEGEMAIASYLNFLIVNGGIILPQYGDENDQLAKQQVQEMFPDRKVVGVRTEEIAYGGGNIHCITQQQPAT
The test is described as follows: Inhibition of Streptococcus mutans agmatine deiminase expressed in Escherichia coli pre-incubated for 15 mins before agmatine substrate addition.

Test [2] deals with T2, Putative agmatine deiminase (Streptococcus mutans serotype c (strain ATCC 700610 / UA159)) (UniProt Q8DW17).
T2 sequence (whole entry): T1 sequence (Q8DW17 whole entry)
The test is described as follows: Binding affinity to Streptococcus mutans agmatine deiminase expressed in Escherichia coli assessed as enzyme photo labeling at 10 uM after 45 mins by coomassie blue staining based gel electrophoresis method.

In test [3] the target is T2, Putative agmatine deiminase (Streptococcus mutans serotype c (strain ATCC 700610 / UA159)). Briefly: Binding affinity to Streptococcus mutans agmatine deiminase expressed in Escherichia coli assessed as enzyme level detected by compound at 10 uM after 45 mins by coomassie blue staining based gel electrophoresis method.
Test [4] has the same target. Briefly: Binding affinity to Streptococcus mutans agmatine deiminase expressed in Escherichia coli assessed as enzyme photo labeling at 2 to 10 uM by coomassie blue staining based gel electrophoresis method.
For test [5] the target is unchanged. Briefly: Binding affinity to Streptococcus mutans agmatine deiminase expressed in Escherichia coli assessed as enzyme photo labeling at 10 uM pre-treated with 10 uM ABCA for 45 mins by coomassie blue staining based gel electrophoresis method.
Test [6] shares this target. The test is described as follows: Binding affinity to Streptococcus mutans agmatine deiminase in presence of Escherichia coli cell lysates assessed as enzyme photo labeling at 10 uM after 45 mins by coomassie blue staining based gel electrophoresis method.
The target is the same in test [7]. Briefly: Binding affinity to Streptococcus mutans agmatine deiminase expressed in Escherichia coli assessed as enzyme photo labeling at 2 to 10 uM after 45 mins by coomassie blue staining based SDS-PAGE method.
For test [8] the target is unchanged. The test is described as follows: Binding affinity to Streptococcus mutans agmatine deiminase in presence of Escherichia coli cell lysates assessed as enzyme level detected by compound at 10 uM after 45 mins by coomassie blue staining based gel electrophoresis method.

From ChEMBL document CHEMBL3351330, “Design, synthesis, and in vitro evaluation of an activity-based protein profiling (ABPP) probe targeting agmatine deiminases” (Bioorg Med Chem, 2014) come the findings set out here.

Activity calls are given as the source filed them. The rule behind the calls is not given here.

What is called IC50 is the midpoint of a concentration-inhibition curve. A higher IC50 goes with lower potency. The compound `N=C(CCl)NCCCCN` had an IC50 in test [1] of 0.26 µM. That is a sub-micromolar value.
For the compound `N=C(CCl)NCCCCNCCCCCNC(=S)Nc1ccc(-c2c3ccc(=O)cc-3oc3cc(O)ccc23)c(C(=O)O)c1`, the outcome in test [2], in test [4], in test [6] and in test [7] was Active. Also, the Activity turned out to be 1 pmol in test [3] and 0.5 pmol in test [8]. For the same compound, the outcome in test [5] was inactive. The compound also returned an IC50 in test [1] of 10.6 µM.
